Among the data in ChEMBL document CHEMBL1123256, “Neuroleptics from the 4a,9b-trans-2,3,4,4a,5,9b-hexahydro-1H-pyrido[4,3-b]indole series. 3. Carboxamidoalkyl derivatives” (J Med Chem, 1986) are IC50 and ED50 values, retold here.

The target in experiment [1] is Dopamine receptor.
Description: Ability to displace [3H]spiroperidol from labeled Dopamine receptor of corpus striatum
In experiment [2] the test system is Rattus norvegicus. Put plainly: Compound was tested in vivo for its ability to antagonize the stereotypy in rats induced by d-amphetamine sulfate 1 hr later of the treatment; value ranges from 0.03-0.1. Type of experiment: functional.
For experiment [3], the system named is Rattus norvegicus. Put plainly: Compound was tested in vivo for its ability to antagonize the stereotypy in rats induced by d-amphetamine sulfate 24 hr later of the treatment; value ranges from 0.32-1.0. Type of experiment: functional.
Experiment [4] deals with Dopamine receptor. The source holds these as a separate data set.
Description: Compound was tested in vitro for its ability to displace [3H]spiroperidol from labeled dopamine receptors of corpus striatum
Experiment [5] has as its system Rattus norvegicus. Put plainly: Compound was tested in vivo for its ability to antagonize the stereotypy in rats induced by d-amphetamine sulfate 5 h later of the treatment; value ranges from 0.32-1.0. Type of experiment: functional.
In experiment [6] the test system is Rattus norvegicus. Put plainly: Compound was tested in vivo for its ability to antagonize the stereotypy in rats induced by d-amphetamine sulfate 5 hr later of the treatment; value ranges from 0.1-0.032. Type of experiment: functional.
Experiment [7] concerns Rattus norvegicus. Put plainly: Compound was tested in vivo for its ability to antagonize the stereotypy in rats induced by d-amphetamine sulfate 1 hr later of the treatment; value ranges from 0.1-0.32. It counts as functional.
Experiment [8] deals with Dopamine receptor. In words: Compound was tested in vitro for its ability to displace [3H]spiroperidol from labeled Dopamine receptor of corpus striatum. It counts as functional.

SMILES strings stand for the structures.

In the case of `CC(=O)NCCCN1CC[C@@H]2C(C1)c1cc(F)ccc1N2c1ccc(F)cc1.Cl` (some centres not stated), the IC50 (usually the concentration that inhibits the measured activity by half) in experiment [1] is listed as 10 nM. Further, the ED50 (in general, the midpoint of the dose-response relation) in experiment [2] came to 0.03 mg/kg; in experiment [3], 0.32 mg/kg.

Turning to `CC(C(=O)CN1CC[C@@H]2C(C1)c1cc(F)ccc1N2c1ccc(F)cc1)c1ncco1.Cl` (some centres not stated), the IC50 in experiment [1] is 10 nM.

In experiment [4], `Cl.O=C1c2ccccc2C(=O)N1CCCCN1CC[C@@H]2C(C1)c1cc(F)ccc1N2c1ccc(F)cc1` (some centres not stated) gave an IC50 of 27 nM.

In turn, `Cl.O=c1oc2ccccc2n1CCCCN1CC[C@@H]2C(C1)c1cc(F)ccc1N2c1ccc(F)cc1` (some centres not stated) displayed an IC50 in experiment [4] of 28 nM. The same compound gave an ED50 in experiment [5] of 0.32 mg/kg.

`CC(=O)NCCCCN1CC[C@@H]2C(C1)c1cc(F)ccc1N2c1ccc(F)cc1.Cl` (some centres not stated): the IC50 in experiment [1] was determined as 15 nM.

On to `Cl.O=C1CCCCN1CCCCN1CC[C@@H]2C(C1)c1cc(F)ccc1N2c1ccc(F)cc1` (some centres not stated), for which the IC50 in experiment [4] was 6.2 nM. For the same compound, in experiment [6], the ED50 stood at 0.032 mg/kg.

In experiment [1], `CC(=O)NCCN1CC[C@@H]2C(C1)c1cc(F)ccc1N2c1ccc(F)cc1.Cl` (some centres not stated) displayed an IC50 of 16 nM.

In the case of `CC(=O)NCCCCCCN1CC[C@@H]2C(C1)c1cc(F)ccc1N2c1ccc(F)cc1.Cl` (some centres not stated), the IC50 in experiment [1] turned out to be 8 nM.

In turn, `CC(=O)NCCCCCN1CC[C@@H]2C(C1)c1cc(F)ccc1N2c1ccc(F)cc1.Cl` (some centres not stated) had an IC50 in experiment [1] of 9 nM.

`Cl.N#CCCCN1CC[C@@H]2C(C1)c1cc(F)ccc1N2c1ccc(F)cc1` (some centres not stated): it took a dose of 0.1 mg/kg to reach the 50% effect level in experiment [7] (ED50).

In turn, `Cl.NCCCCN1CC[C@@H]2C(C1)c1cc(F)ccc1N2c1ccc(F)cc1` (some centres not stated) yielded an IC50 in experiment [1] of 28 nM.

In the case of `CCOC(=O)NCCCCN1CC[C@@H]2C(C1)c1cc(F)ccc1N2c1ccc(F)cc1.Cl` (some centres not stated), the IC50 in experiment [1] was determined as 11 nM.

In turn, `CC(=O)NCCCCCCCN1CC[C@@H]2C(C1)c1cc(F)ccc1N2c1ccc(F)cc1.Cl` (some centres not stated) returned an IC50 in experiment [8] of 9 nM.
